Data published in publication PMC12670405, “Second-Generation AURKA-Targeting PROTACs: Structural Optimization toward in Vivo Degradation in Neuroblastoma” (Journal of Medicinal Chemistry, 2025).
Like-named read-outs stand apart in the source and are kept apart here.

Tests used:
IMR-32 = assay: IncuCyte live-cell imaging, antiproliferative effect; assay type: cell-based; details: Homo sapiens, IMR-32, 72 h, read-out: Cell GI50 72h, IMR-32
How it was run: (§1)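 Cells seeded in 384-well plates (neuroblastoma 1200–5000, HEK293T 600 cells/well), adhered overnight, then compound-treated in duplicate or triplicate; confluency tracked by IncuCyte live-cell imaging. Normalized confluence averaged from 3 experiments; absolute GI50 interpolated from four-parameter variable-slope curves.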

JRKL = assay: LC-MS/MS proteome profiling; assay type: cell-based, Homo sapiens; parameters: key to Significant (3h SK5527vs3h DMSO) FDR0 05 / Significant (24h SK5527vs24h DMSO) FDR0 05: +: Statistical significance for differential regulation was set to a false discovery rate (FDR) of < 0.05 and |log2FC| = 2
Description: IMR-32 cells were seeded in T-25 flasks at a density of 1.7 million cells/flask and treated the next day with DMSO (negative control), SK5527 (500 nM) or MK-5108 (500 nM) for 3 or 24 h (data for MK-5108 not discussed in this manuscript). Cell pellets were harvested at the respective time points, lysed, and the concentration of the obtained protein lysates measured as previously described. Details on further sample preparation, LC–MS/MS, and data analysis can be found in the Supporting Information. The LC–MS/MS proteomics data have been deposited to the ProteomeXchange Consortium via the PRIDE partner repository with the data set identifier PXD061539.
Supplementary Methods 1 – LC-MS/MS proteomics
From each sample, 100 µg of protein was isolated, the volumes were equalized with water and SDS and TEAB were added to a final concentration of 5% and 50 mM, respectively. Proteins were reduced and alkylated by addition of 10 mM Tris(2-carboxyethyl)phosphine hydrochloride and 40 mM chloroacetamide and incubation for 30 minutes at 25°C in the dark. Phosphoric acid was added to a final concentration of 1.2%, and samples were subsequently diluted 7-fold with binding buffer containing 90% methanol in 100 mM TEAB, pH 7.55. The samples were loaded on the 96-well S-Trap™ plate (Protifi), placed on top of a deepwell plate, and centrifuged for 2 min at 1,500 x g at RT. After protein binding, the S-trap™ plate was washed three times by adding 200 µl binding buffer and centrifugation for 2 min at 1,500 x g at RT. A new deepwell receiver plate was placed below the 96-well S-Trap™ plate and 50 mM TEAB containing trypsin (1/100, w/w) was added for digestion overnight at 37°C.
Using centrifugation for 2 min at 1,500 x g, peptides were eluted in three steps, first with 80 µl 50 mM TEAB, then with 80 µl 0.2% formic acid (FA) in water and finally with 80 µl 0.2% FA in water/acetonitrile (ACN) (50/50, v/v). Eluted peptides were dried completely by vacuum centrifugation.
Peptides were re-dissolved in 20 µl loading solvent A (0.1% trifluoroacetic acid in water/acetonitrile (ACN) (99.5:0.5, v/v)) of which 2 µl of sample was injected for LC-MS/MS analysis on an Ultimate 3000 ProFlow nanoLC system in-line connected to a Orbitrap Exploris 240 mass spectrometer (Thermo) equipped with pneu-Nimbus dual ion source (Phoenix S&T). Trapping was performed at 20 μl/min for 2 min in loading solvent A on a PepMap™ Neo Trap column (Thermo scientific, 300 μm internal diameter (I.D.), 5 μm beads). The peptides were separated on a 250 mm Odyssey Ultimate, 1.7µm C18, 75 µm inner diameter (Ionopticks) kept at a constant temperature of 45°C. Peptides were eluted by a gradient reaching 26,4 % MS solvent B (0.1% FA in acetonitrile) after 80 min, 44% MS solvent B at 95 min, 56% MS solvent B at 100min followed by a 5-minutes wash at 56% MS solvent B and re-equilibration with MS solvent A (0.1% FA in water). The flow rate was set to 250 nl/min. The mass spectrometer was operated in data-independent mode, automatically switching between MS and MS/MS acquisition. Full-scan MS spectra ranging from 375-1500 m/z with a normalized target value of 300%, a maximum fill time of 25 ms and a resolution at of 60,000 were followed by 30 quadrupole isolations with a precursor isolation width of 10 m/z for HCD fragmentation at an NCE of 30% after filling the trap at a normalized target value of 2000% for maximum injection time of 45 ms. MS2 spectra were acquired at a resolution of 15,000 with a scan range of 200-1800 m/z in the Orbitrap analyser without multiplexing. The isolation intervals were set from 400 – 900 m/z with a width of 10 m/z using window placement optimization. The polydimethylcyclosiloxane background ion at 445.120028 Da was used for internal calibration (lock mass) and QCloud has been used to control instrument longitudinal performance during the project.
Analysis of the mass spectrometry data was performed in DiaNN (version 1.9). Precursor false discovery rate was […]
set at 1%. […]

HEK293T = assay: IncuCyte live-cell imaging, antiproliferative effect; assay type: cell-based; details: Homo sapiens, HEK-293T
How it was run: as §1

Compound | GI50 (IMR-32) [nM] | Significant (3h SK5527vs3h DMSO) FDR0 05 (JRKL; IMR-32, 3h) | logFC (3h SK5527vs3h DMSO) (JRKL; IMR-32, 3h) | Significant (24h SK5527vs24h DMSO) FDR0 05 (JRKL; IMR-32, 24h) | logFC (24h SK5527vs24h DMSO) (JRKL; IMR-32, 24h) | logFC JRKL (JRKL; SK5527 vs DMSO (3h)) | logFC JRKL (JRKL; SK5527 vs DMSO (24h)) | GI50 (HEK293T; 72 h, read-out: Cell GI50 72h) [nM] | GI50 (HEK293T; 72h, read-out: GI50) [nM]
O=C1CCC(N2C(=O)c3cccc(OCCOCCOCCOCCNC(=O)[C@]4(Cc5cccc(Nc6nccs6)n5)CC[C@@H](Oc5cccc(Cl)c5F)CC4)c3C2=O)C(=O)N1 (stereo partly drawn) [SK2188, reference compound] | 10 |  |  |  |  |  |  |  | 
Cc1cc(Nc2ccc(F)c(CC3(C(=O)N4CCC(F)(CN5CCN(c6ccc(N7CCC(=O)NC7=O)cn6)CC5)CC4)CCN(Cc4cccc(Cl)c4F)CC3)n2)n[nH]1 [SK5527] |  | + | 5.38 | + | 3.68 | 5.38 | 3.68 | 408 | ~500
